This assay concerns Ambrosia artemisiifolia. The experiment in a line: Test Example 1: seeds on filter paper moistened with chemical solution, herbicidal effect visually evaluated. Type of assay: in vivo. The settings on record: visually evaluated 6 days after treatment; for pest or weed control at 0.012 ppm: amount of active ingredient 0.012 ppm. The method, then: As the compound (1), 1-methoxy-3-methyl-6-(1,1-dioxido-8-(trifluoromethyl)thiochroman-5-yl)-7-oxa-3,4-diazabicyclo[4.1.0]hept-4-en-2-one (Compound (I-3)) was used.
The compound (I) or compound (II) was prepared into a 5% emulsion using DMF (containing 1.5% Tween) and diluted with water to a prescribed dosage concentration. Commercially available preparations were dissolved in water and adjusted to a prescribed dosage concentration.
Seeds were soaked in 0.6% sodium hypochlorite for a predetermined time for surface sterilization and washed with water for use (seed disinfection). Seeds of Ambrosia artemisiifolia were used for the test.
Filter paper was placed on a cup (diameter: 10 cm, height: 4 cm) with a lid and moistened with 8 ml of chemical solution, and seeds were sown thereon, and after covering with a lid, grown in a constant temperature room.
The herbicidal effects were visually evaluated, 6 days after the treatment, as the herbicidal effect (%), by comparing with a state of an untreated group using a total of 21 scores of withering index from 0 to 20 (0: mortality rate equivalent to that of the untreated group, 20: mortality rate of 100%).
In addition, the expected values of the herbicidal effects were calculated from the herbicidal effects in a case where the compound (I) alone was applied and the herbicidal effects in a case where the compound (II) alone was applied by using the Colby's formula (Colby, S. R., Calculating synergistic and antagonistic responses of herbicide combinations, Weeds, 15, pp. 20-22 (1967)).
M indicates an herbicidal effect (%) in the application of the compound (I) alone, N indicates an herbicidal effect (%) in the application of the compound (II) alone, and E indicates an expected value (%) of the herbicidal effect in the combined application of the compound (T) and the compound (TT). When the actual measured value (%) of the herbicidal effect in the combined application of the compound (I) and the compound (II) is greater than the expected value E, it can be regarded that the combined application of the compound (I) and the compound (II) has a synergistic effect.

Setting [1] is: Ambrosia artemisiifolia, 144 h, compound applied alone, amount of active ingredient 3.1 ppm, read-out: Herbicidal effect (%).
The mark [2] stands for this setting: Ambrosia artemisiifolia, 144 h, read-out: Herbicidal effect (%), applied alone, amount of active ingredient 12.5 ppm.
The mark [3] stands for this setting: Ambrosia artemisiifolia, 144 h, applied alone, amount of active ingredient 0.8 ppm, read-out: Herbicidal effect (%).
Setting [4] is: Ambrosia artemisiifolia, 144 h, applied alone, amount of active ingredient 0.2 ppm, read-out: Herbicidal effect (%).
Setting [5] is: Ambrosia artemisiifolia, 144 h, compound applied alone, amount of active ingredient 0.8 ppm, read-out: Herbicidal effect (%).
Setting [6] is: compound applied alone, amount of active ingredient 0.8 ppm.
[7] abbreviates: Ambrosia artemisiifolia, 144 h, compound applied alone, amount of active ingredient 0.2 ppm, read-out: Herbicidal effect (%).
Setting [8] is: Ambrosia artemisiifolia, 144 h, compound applied alone.
Setting [9] is: Ambrosia artemisiifolia, 144 h, applied alone, amount of active ingredient 50 ppm, read-out: Herbicidal effect (%).
Setting [10] is: applied alone, amount of active ingredient 0.8 ppm.
Where [11] appears, read: Ambrosia artemisiifolia, 144 h, applied alone, amount of active ingredient 12.5 ppm, read-out: Herbicidal effect (%).
The mark [12] stands for this setting: compound applied alone, amount of active ingredient 0.2 ppm.

Read-outs that look alike come from different tables or passages of the source.

`N#Cc1cc(Br)c(O)c(Br)c1` [Bromoxynil]: the pest or weed control at 3.1 ppm (Ambrosia artemisiifolia, 144 h, applied alone, amount of active ingredient 3.1 ppm, read-out: Herbicidal effect (%)) came to 0%.
With `CC/C(=N\OC/C=C/Cl)C1=C(O)CC(C2CCOCC2)CC1=O` (centres unmarked) [Tepraloxydim], under “Ambrosia artemisiifolia, 144 h, read-out: Herbicidal effect (%), compound applied alone, amount of active ingredient 3.1 ppm”, the pest or weed control at 3.1 ppm was found to be 10%.
As for `CCOC(=O)COc1ncccc1Oc1cc(-n2c(=O)cc(C(F)(F)F)n(C)c2=O)c(F)cc1Cl` [Epyrifenacil], for the setting “compound applied alone, amount of active ingredient 0.0125 ppm”, the “Herbicidal effect (%)” value is recorded as 80%.
Take `Cc1cc(Cl)ccc1OCC(=O)O` [MCPA]: the “Herbicidal effect (%)” value (applied alone, amount of active ingredient 0.2 ppm) was determined as 30%.
In the case of `COC(=O)NS(=O)(=O)c1ccc(N)cc1` [Asulam], the pest or weed control at 3.1 ppm under setting [1] is 20%.
As for `COC(=O)C(C)Oc1ccc(Oc2ncc(C(F)(F)F)cc2Cl)cc1` (centres unmarked) [Haloxyfop-methyl], under setting [2], the pest or weed control at 12.5 ppm was 10%.
As to `COc1c(Cl)ccc(Cl)c1C(=O)O` [Dicamba], under setting [3], the pest or weed control at 0.8 ppm worked out at 30%.
As for `CC1(C)CON(Cc2ccccc2Cl)C1=O` [Clomazone], the pest or weed control at 0.2 ppm under setting [4] was 10%.
Consider `CCc1cccc(C)c1N(C(=O)CCl)C(C)COC` (centres unmarked) [Metolachlor], for which the pest or weed control at 0.8 ppm under setting [5] amounted to 10%.
On to `COC[C@H](C)N(C(=O)CCl)c1c(C)csc1C` [Dimethenamid-P], for which, under setting [6], the “Herbicidal effect (%)” value is 30%.
On to `Cc1ccccc1CO[C@@H]1C[C@@]2(C(C)C)CC[C@]1(C)O2` (racemic) [Cinmethylin], for which the pest or weed control at 3.1 ppm under setting [1] is 50%.
With `CP(=O)(O)CCC(N)C(=O)O` (centres unmarked) [Glufosinate-ammonium], the pest or weed control at 12.5 ppm under setting [2] worked out at 20%.
`CCC(C)(CC)c1cc(NC(=O)c2c(OC)cccc2OC)on1` [Isoxaben]: the pest or weed control at 0.2 ppm under setting [7] was found to be 75%.
Turning to `NC(=O)c1nc(-c2ccccc2)n(-c2ccc(Cl)c(COCC(F)(F)C(F)(F)F)c2)n1` [Flupoxam], the pest or weed control at 0.012 ppm under setting [8] was determined as 65%.
Take `CSc1nnc(C(C)(C)C)c(=O)n1N` [Metribuzin]: under setting [9], the pest or weed control at 50 ppm amounted to 0%.
Consider `CCCCC(CC)COC(=O)COc1ccc(Cl)cc1Cl` (centres unmarked) [2,4-D 2-ethylhexyl ester], for which the “Herbicidal effect (%)” value under setting [10] turned out to be 50%.
`CC(C)N(C(=O)SCC(Cl)=C(Cl)Cl)C(C)C` [Tri-allate]: under setting [11], the pest or weed control at 12.5 ppm was found to be 20%.
For `COC(=O)c1c(Cl)nn(C)c1S(=O)(=O)NC(=O)Nc1nc(OC)cc(OC)n1` [Halosulfuron-methyl], under “Ambrosia artemisiifolia, 144 h, read-out: Herbicidal effect (%), compound applied alone, amount of active ingredient 0.05 ppm”, the pest or weed control at 0.05 ppm was determined as 30%.
As to `COC(=O)c1csc(C)c1S(=O)(=O)NC(=O)n1nc(OC)n(C)c1=O` [Thiencarbazone-methyl], the “Herbicidal effect (%)” value under setting [10] stood at 30%.
As for `CCc1cccc(CC)c1N(COC)C(=O)CCl` [Alachlor], under setting [5], the pest or weed control at 0.8 ppm came out at 20%.
As for `c1cc[n+]2c(c1)-c1cccc[n+]1CC2` [Diquat], the pest or weed control at 0.2 ppm (Ambrosia artemisiifolia, 144 h, read-out: Herbicidal effect (%), compound applied alone, amount of active ingredient 0.2 ppm) amounted to 30%.
As to `Cc1cccc(C2CC2)c1Oc1nnc(Cl)cc1OC(=O)N1CCOCC1` [Cyclopyrimorate], the “Herbicidal effect (%)” value (compound applied alone, amount of active ingredient 12.5 ppm) worked out at 40%.
Take `CNC(=O)N(C)c1nnc(C(C)(C)C)s1` [Tebuthiuron]: for the setting “Ambrosia artemisiifolia, 144 h, read-out: Herbicidal effect (%), compound applied alone, amount of active ingredient 50 ppm”, the pest or weed control at 50 ppm was found to be 20%.
For the molecule `Cc1c(C(=O)c2cnn(C)c2O)ccc(S(C)(=O)=O)c1C1=NOCC1` [Topramezone], the “Herbicidal effect (%)” value under setting [12] was determined as 40%.
With `Nc1c(Cl)c(F)nc(OCC(=O)O)c1Cl` [Fluroxypyr], the pest or weed control at 0.8 ppm under setting [3] came to 40%.
For `C#CCN1C(=O)COc2cc(F)c(N3C(=O)C4=C(CCCC4)C3=O)cc21` [Flumioxazin], for the setting “Ambrosia artemisiifolia, 144 h, applied alone, amount of active ingredient 0.05 ppm, read-out: Herbicidal effect (%)”, the pest or weed control at 0.05 ppm was 80%.
Consider `Nc1nc[nH]n1` [Amitrole], for which the pest or weed control at 3.1 ppm under setting [1] worked out at 20%.
Consider `CN1C[C@H](c2cccc(C(F)(F)F)c2)[C@@H](C(=O)Nc2ccccc2F)C1=O` [Tetflupyrolimet], for which, under “compound applied alone, amount of active ingredient 3.1 ppm”, the “Herbicidal effect (%)” value was determined as 70%.
For `CS(=O)(=O)c1ccc(C(=O)C2C(=O)CCCC2=O)c([N+](=O)[O-])c1` [Mesotrione], under setting [7], the pest or weed control at 0.2 ppm was found to be 50%.
Regarding `FC(F)c1cc(-c2c(Cl)cccc2Oc2ncc(Cl)cn2)on1` [Rimisoxafen], the “Herbicidal effect (%)” value under setting [12] was found to be 25%.
As to `Cc1nn(-c2cc(NS(C)(=O)=O)c(Cl)cc2Cl)c(=O)n1C(F)F` [Sulfentrazone], the pest or weed control at 0.012 ppm under setting [8] was 0%.
Regarding `O=C(Nc1ccc(F)cc1F)c1cccnc1Oc1cccc(C(F)(F)F)c1` [Diflufenican], the pest or weed control at 0.2 ppm under setting [7] is 10%.
As for `Nc1c([N+](=O)[O-])ccc(Oc2ccccc2)c1Cl` [Aclonifen], the pest or weed control at 50 ppm (Ambrosia artemisiifolia, 144 h, compound applied alone, amount of active ingredient 50 ppm, read-out: Herbicidal effect (%)) came to 20%.
As to `CS(=O)(=O)c1cc(C(F)(F)F)ccc1C(=O)c1cnoc1C1CC1` [Isoxaflutole], under “Ambrosia artemisiifolia, 144 h, compound applied alone, amount of active ingredient 0.0125 ppm”, the pest or weed control at 0.0125 ppm was determined as 40%.
As for `COc1cc(OC)nc(NC(=O)NS(=O)(=O)c2ncccc2C(=O)N(C)C)n1` [Nicosulfuron], under setting [5], the pest or weed control at 0.8 ppm amounted to 60%.
Regarding `O=C(O)CNCP(=O)(O)O` [Glyphosate], under setting [2], the pest or weed control at 12.5 ppm stood at 20%.
As for `CCS(=O)(=O)c1cccnc1S(=O)(=O)NC(=O)Nc1nc(OC)cc(OC)n1` [Rimsulfuron], under setting [4], the pest or weed control at 0.2 ppm came to 20%.
With `CC(C)N1C(=O)c2ccccc2NS1(=O)=O` [Bentazon], the pest or weed control at 200 ppm (Ambrosia artemisiifolia, 144 h, applied alone, amount of active ingredient 200 ppm) stood at 20%.
As to `Cc1ccn2nc(S(=O)(=O)Nc3c(F)cccc3F)nc2n1` [Flumetsulam], the pest or weed control at 12.5 ppm under setting [11] is 40%.
As for `CCC(CC)Nc1c([N+](=O)[O-])cc(C)c(C)c1[N+](=O)[O-]` [Pendimethalin], the pest or weed control at 0.8 ppm under setting [3] was 20%.
With S-metolachlor, the “Herbicidal effect (%)” value under setting [6] stood at 20%.
Turning to `CC(C)N(C)S(=O)(=O)NC(=O)c1cc(-n2c(=O)cc(C(F)(F)F)n(C)c2=O)c(F)cc1Cl` [Saflufenacil], under “Ambrosia artemisiifolia, 144 h, applied alone, amount of active ingredient 0.0125 ppm”, the pest or weed control at 0.0125 ppm is 60%.
With `CCNc1nc(Cl)nc(NC(C)(C)C)n1` [Terbuthylazine], the pest or weed control at 50 ppm under setting [9] came to 0%.
On to `CCCN(CCC)c1c([N+](=O)[O-])cc(C(F)(F)F)cc1[N+](=O)[O-]` [Trifluralin], for which the pest or weed control at 0.8 ppm under setting [3] worked out at 10%.
Regarding 2,4-D amine, the “Herbicidal effect (%)” value (applied alone, amount of active ingredient 0.05 ppm) amounted to 20%.
As for `CCSC(C)CC1CC(=O)C(/C(CC)=N/OC/C=C/Cl)=C(O)C1` (centres unmarked) [Clethodim], under setting [2], the pest or weed control at 12.5 ppm was 0%.
On to `CCNc1nc(Cl)nc(NCC)n1` [Simazine], for which the pest or weed control at 50 ppm under setting [9] was found to be 30%.
`CCCN(CCC)C(=O)SCc1ccccc1` [Prosulfocarb]: the pest or weed control at 0.8 ppm under setting [3] was found to be 20%.
Turning to `O=C(Nc1ccc(F)cc1)c1cccc(Oc2cccc(C(F)(F)F)c2)n1` [Picolinafen], the “Herbicidal effect (%)” value (applied alone, amount of active ingredient 3.1 ppm) was determined as 30%.
As for `CON(C)C(=O)Nc1ccc(Cl)c(Cl)c1` [Linuron], the pest or weed control at 12.5 ppm (Ambrosia artemisiifolia, 144 h, compound applied alone, amount of active ingredient 12.5 ppm, read-out: Herbicidal effect (%)) was determined as 10%.
Take `Nc1c(Cl)c(Cl)nc(C(=O)O)c1Cl` [Picloram]: the pest or weed control at 0.8 ppm under setting [3] turned out to be 70%.
For the molecule `CN(C)c1nc(=O)n(C2CCCCC2)c(=O)n1C` [Hexazinone], the pest or weed control at 3.1 ppm under setting [1] was 10%.
With `CCC/C(=N\OCC)C1=C(O)CC(CC(C)SCC)CC1=O` (centres unmarked) [Sethoxydim], where the note is “Ambrosia artemisiifolia, 144 h, read-out: Herbicidal effect (%), compound applied alone, amount of active ingredient 0.8 ppm”, the pest or weed control at 0.8 ppm turned out to be 0%.

The record behind these values is patent publication US20240130368A1, “HERBICIDAL COMPOSITION” (Nippon Soda Co., Ltd., priority 2021, published 2024).
